According to ChEMBL document CHEMBL3997831, “Synthesis and evaluation of prodrugs of corticotropin-releasing factor-1 (CRF1) receptor antagonist BMS-665053 leading to improved oral bioavailability” (Bioorg Med Chem Lett, 2017):
Converted amounts (≈) assume the structure as drawn.

What was measured:
[1] = (§1) Cmax in Sprague-Dawley rat at 10 mg/kg, po by LC-MS/MS analysis; assay type: ADME, organism-based; design: dose 10 mg/kg, route oral; details: Sprague-Dawley, in vivo
[2] = Oral bioavailability in Sprague-Dawley rat at 10 mg/kg by LC-MS/MS analysis; assay type: ADME, organism-based; details: in vivo
[3] = Thermodynamic equilibrium aqueous solubility in pH 1 solution at 1 mg/ml after 15 to 24 hrs by UV-HPLC method; assay type: physicochemical; details: aqueous pH 1 solution, read-out: Therm_solubility
[4] = (§2) AUC (0 to 24 hrs) in Sprague-Dawley rat at 10 mg/kg, po by LC-MS/MS analysis; assay type: ADME, organism-based; design: dose 10 mg/kg, time < 24 hr, route oral; details: Sprague-Dawley, in vivo
[5] = Thermodynamic equilibrium aqueous solubility in pH 6.5 solution at 1 mg/ml after 15 to 24 hrs by UV-HPLC method; assay type: physicochemical; details: for solubility thermodynamic: aqueous pH 6.5 solution, read-out: Therm_solubility
[6] = Prodrug activation in pH 7 buffer assessed as BMS-665053 formation after 10 mins by HPLC method
[7] = system: Plasma; experiment: Prodrug activation in Sprague-Dawley rat assessed as BMS-665053 level in plasma at 10 mg/kg, po by LC-MS/MS analysis; assay type: organism-based; details: in vivo
[8] = Stability in pH 1 buffer by HPLC method; assay type: physicochemical
[9] = molecular target: T1, Alkaline phosphatase, tissue-nonspecific isozyme (Homo sapiens, UniProt P05186); experiment: Drug metabolism treated with 2,2-Dimethyl-3-(phosphonooxy)propyl (S)-(6-chloro-4-(1-cyclopropylethyl)-3-oxo-3,4-dihydropyrazin-2-yl)(2,6-dichloro-4-(difluoromethoxy)phenyl)carbamate, disodium salt assessed as alkaline phosphatase (unknown origin)-mediated compound conversion after 120 mins by LC-MS analysis; assay type: ADME; details: 2 h
T1 sequence (P05186 whole entry): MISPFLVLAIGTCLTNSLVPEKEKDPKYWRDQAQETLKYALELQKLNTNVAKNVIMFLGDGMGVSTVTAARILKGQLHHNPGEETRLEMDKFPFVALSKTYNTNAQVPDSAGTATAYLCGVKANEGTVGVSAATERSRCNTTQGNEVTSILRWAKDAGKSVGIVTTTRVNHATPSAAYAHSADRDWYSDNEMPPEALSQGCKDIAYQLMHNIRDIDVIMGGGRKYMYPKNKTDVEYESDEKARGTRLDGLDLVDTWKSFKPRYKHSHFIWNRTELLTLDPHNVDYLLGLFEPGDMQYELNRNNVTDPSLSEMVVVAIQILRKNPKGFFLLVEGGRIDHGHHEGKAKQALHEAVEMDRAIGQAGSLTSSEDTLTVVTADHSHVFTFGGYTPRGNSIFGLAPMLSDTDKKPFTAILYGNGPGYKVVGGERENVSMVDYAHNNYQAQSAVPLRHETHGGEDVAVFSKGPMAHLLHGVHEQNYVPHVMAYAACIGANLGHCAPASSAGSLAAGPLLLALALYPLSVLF

[10] = molecular target: T1, Alkaline phosphatase, tissue-nonspecific isozyme; experiment: Drug metabolism treated with 3-(Phosphonooxy)propyl (S)-(6-chloro-4-(1-cyclopropylethyl)-3-oxo-3,4-dihydropyrazin-2-yl)(2,6-dichloro-4-(difluoromethoxy)phenyl)carbamate, disodium salt assessed as alkaline phosphatase (unknown origin)-mediated compound conversion after 120 mins by LC-MS analysis; assay type: ADME; details: 2 h
[11] = Stability in pH 1 buffer after 8 hrs by HPLC method; assay type: physicochemical; details: pH 1, 8 h
[12] = Stability in pH 7 buffer after 8 hrs by HPLC method; assay type: physicochemical; details: pH 7, 8 h
[13] = system: Rattus norvegicus; experiment: as §1; assay type: ADME, organism-based; design: dose 10 mg/kg, route oral; details: in vivo, BLD = below limit of detection
[14] = system: Rattus norvegicus; experiment: as §2; assay type: ADME, organism-based; design: dose 10 mg/kg, time < 24 hr, route oral; details: in vivo, 24 h, BLD = below limit of detection

SMILES | Cmax [1] [nM] | bioavailability [2] [%] | solubility thermodynamic [3] [µg/mL] | AUC(0-t) at 24 h [4] [µM·h] | solubility thermodynamic [5] [µg/mL] | Drug metabolism [7] | further results
CC(C)[C@H](N)C(=O)OCOC(=O)N(c1c(Cl)cc(OC(F)F)cc1Cl)c1nc(Cl)cn([C@@H](C)C2CC2)c1=O.Cl | 740 | 32 | 1820 | 7.37 | 10 |  | 
C[C@@H](C1CC1)n1cc(Cl)nc(N(C(=O)OCOP(=O)(O)O)c2c(Cl)cc(OC(F)F)cc2Cl)c1=O | 460 | 17 | 338 (≈ 584 µM) | 3.99 |  | 23 %ID | Drug metabolism [6]: Metabolite detected; Therm_solubility ([5]; buffer): Nd(Unstable); Stability [8]: Stable
C[C@@H](C1CC1)n1cc(Cl)nc(N(COP(=O)([O-])[O-])c2c(Cl)cc(OC(F)F)cc2Cl)c1=O.[Na+].[Na+] | 2150 | 25 |  | 5.99 |  |  | 
C[C@H](N)C(=O)OCOC(=O)N(c1c(Cl)cc(OC(F)F)cc1Cl)c1nc(Cl)cn([C@@H](C)C2CC2)c1=O.Cl | 730 | 36 | 370 | 8.25 | 5 |  | 
C[C@@H](C1CC1)n1cc(Cl)nc(N(C(=O)OCCCO)c2c(Cl)cc(OC(F)F)cc2Cl)c1=O |  |  |  |  |  |  | Drug metabolism [9]: Metabolite_Detected; Drug metabolism [10]: Metabolite_Detected
C[C@@H](C1CC1)n1cc(Cl)nc(N(C(=O)OCCCOP(=O)([O-])[O-])c2c(Cl)cc(OC(F)F)cc2Cl)c1=O.[Na+].[Na+] | 295 | 18 | 4 | 4.23 | 1500 |  | Stability [11]: Stable; Stability [12]: Stable
C[C@@H](C1CC1)n1cc(Cl)nc(N(C(=O)OCC(C)(C)COP(=O)([O-])[O-])c2c(Cl)cc(OC(F)F)cc2Cl)c1=O.[Na+].[Na+] |  |  | 50 |  | > 1500 | Metabolite_Notdetected | Cmax [13]: Bld; AUC [14]: Bld
C[C@@H](C1CC1)n1cc(Cl)nc(N(C(=O)OCOC(=O)CCN)c2c(Cl)cc(OC(F)F)cc2Cl)c1=O.Cl | 490 | 27 | 1350 | 6.32 | 30 |  | 
C[C@@H](C1CC1)n1cc(Cl)nc(N(C(=O)OCOC(=O)CN(C)C)c2c(Cl)cc(OC(F)F)cc2Cl)c1=O |  |  | 1720 (≈ 2950 µM) |  | 530 (≈ 908 µM) | Metabolite_Notdetected | Cmax [13]: Bld; AUC [14]: Bld
C[C@@H](C1CC1)n1cc(Cl)nc(Nc2c(Cl)cc(OC(F)F)cc2Cl)c1=O |  |  | 7 (≈ 16.5 µM) | 1.26 | < 1 |  | 
